# ChEMBL document CHEMBL5696441 (Nat Chem Biol, 2011)
# How the values were obtained:
# [1] = target: Cyclin-dependent kinase 5/CDK5 activator 1 (Homo sapiens) (UniProt Q00535+Q15078); assay: Inhibition of human CDK5/p25NCK assessed as residual activity at 1 uM using RBER-CHKtide as substrate in presence of 33P-ATP by ProQinase assay relative to control; type: protein-complex assay
# [2] = target: Homeodomain-interacting protein kinase 1 (Homo sapiens) (UniProt Q86Z02); assay: Inhibition of HIPK1 (unknown origin) assessed as remaining activity at 1 uM by Kinome scan method relative to control
# [3] = target: Casein kinase I isoform gamma-2 (Homo sapiens) (UniProt P78368); assay: Inhibition of human CK1gamma2 assessed as residual activity at 1 uM using casein as substrate in presence of 33P-ATP by ProQinase assay relative to control
# [4] = target: Serine/threonine-protein kinase PAK 6 (Homo sapiens) (UniProt Q9NQU5); assay: Inhibition of human PAK6 assessed as residual activity at 1 uM using bio-4xCHKT as substrate in presence of 33P-ATP by ProQinase assay relative to control
# [5] = target: MAP kinase-interacting serine/threonine-protein kinase 1 (Homo sapiens) (UniProt Q9BUB5); assay: Inhibition of human MKNK1 assessed as residual activity at 1 uM using RB-S6P as substrate in presence of 33P-ATP by ProQinase assay relative to control
# [6] = target: MAP kinase-interacting serine/threonine-protein kinase 1 (Homo sapiens) (UniProt Q9BUB5); assay: Inhibition of MKNK1 (unknown origin) assessed as remaining activity at 1 uM by Kinome scan method relative to control
# [7] = target: NUAK family SNF1-like kinase 2 (Homo sapiens) (UniProt Q9H093); assay: Inhibition of SNARK (unknown origin) assessed as remaining activity at 1 uM by Kinome scan method relative to control
# [8] = target: Dual specificity protein kinase CLK2 (Homo sapiens) (UniProt P49760); assay: Inhibition of CLK2 (unknown origin) assessed as remaining activity at 1 uM by Kinome scan method relative to control
# [9] = target: Myosin light chain kinase 2, skeletal/cardiac muscle (Homo sapiens) (UniProt Q9H1R3); assay: Inhibition of human MYLK2 assessed as residual activity at 1 uM using RB-S6P as substrate in presence of 33P-ATP by ProQinase assay relative to control
# [10] = test system: Receptor-type tyrosine-protein kinase FLT3 (Homo sapiens), P36888 [UNDEFINED MUTATION]; assay: Inhibition of human […] mutant assessed as residual activity at 1 uM using Poly(Ala,Glu,Lys,Tyr)6:2:5:1 as substrate in presence of 33P-ATP by ProQinase assay relative to control
# [11] = target: Ephrin type-A receptor 4 (Homo sapiens) (UniProt P54764); assay: Inhibition of EPHA4 (unknown origin) assessed as remaining activity at 1 uM by Kinome scan method relative to control
# [12] = target: Inhibitor of nuclear factor kappa-B kinase subunit epsilon (Homo sapiens) (UniProt Q14164); assay: Inhibition of human IKKepsilon assessed as residual activity at 1 uM using RBER-GSK3 as substrate in presence of 33P-ATP by ProQinase assay relative to control
# [13] = target: RAC-gamma serine/threonine-protein kinase (Homo sapiens) (UniProt Q9Y243); assay: Inhibition of human AKT3 assessed as residual activity at 1 uM using RBER-GSK3(14-27) as substrate in presence of 33P-ATP by ProQinase assay relative to control
# [14] = Anti-inflammatory activity against human derived high respond PBMC cells assessed as inhibition in stimulated IL-1ra cytokine release incubated for 2 hrs in the presence of LPS/SEB/aCD28 by Luminex based sandwich immunoassay; type: functional, cell-based
# [15] = target: Aurora kinase B (Homo sapiens) (UniProt Q96GD4); assay: Inhibition of human AuroraB assessed as residual activity at 1 uM using bio-4xCHKT as substrate in presence of 33P-ATP by ProQinase assay relative to control
# [16] = target: Serine/threonine-protein kinase ULK1 (Homo sapiens) (UniProt O75385); assay: Inhibition of ULK1 (unknown origin) assessed as remaining activity at 1 uM by Kinome scan method relative to control
# [17] = target: STE20/SPS1-related proline-alanine-rich protein kinase (Homo sapiens) (UniProt Q9UEW8); assay: Inhibition of human STK39 assessed as residual activity at 1 uM using RBER-CDC25tide as substrate in presence of 33P-ATP by ProQinase assay relative to control
# [18] = target: Angiopoietin-1 receptor (Homo sapiens) (UniProt Q02763); assay: Inhibition of human TIE2 assessed as residual activity at 1 uM using polyEY as substrate in presence of 33P-ATP by ProQinase assay relative to control
# [19] = target: Serine/threonine-protein kinase ULK3 (Homo sapiens) (UniProt Q6PHR2); assay: Inhibition of ULK3 (unknown origin) assessed as remaining activity at 1 uM by Kinome scan method relative to control
# [20] = target: MAP kinase-activated protein kinase 5 (Homo sapiens) (UniProt Q8IW41); assay: Inhibition of human MAPKAPK5 assessed as residual activity at 1 uM using RBER-CHKtide as substrate in presence of 33P-ATP by ProQinase assay relative to control
# [21] = target: T1, Tyrosine-protein kinase Tec (Homo sapiens) (UniProt P42680); assay: Inhibition of human TEC assessed as residual activity at 1 uM using polyEY as substrate in presence of 33P-ATP by ProQinase assay relative to control
# T1 sequence (whole entry): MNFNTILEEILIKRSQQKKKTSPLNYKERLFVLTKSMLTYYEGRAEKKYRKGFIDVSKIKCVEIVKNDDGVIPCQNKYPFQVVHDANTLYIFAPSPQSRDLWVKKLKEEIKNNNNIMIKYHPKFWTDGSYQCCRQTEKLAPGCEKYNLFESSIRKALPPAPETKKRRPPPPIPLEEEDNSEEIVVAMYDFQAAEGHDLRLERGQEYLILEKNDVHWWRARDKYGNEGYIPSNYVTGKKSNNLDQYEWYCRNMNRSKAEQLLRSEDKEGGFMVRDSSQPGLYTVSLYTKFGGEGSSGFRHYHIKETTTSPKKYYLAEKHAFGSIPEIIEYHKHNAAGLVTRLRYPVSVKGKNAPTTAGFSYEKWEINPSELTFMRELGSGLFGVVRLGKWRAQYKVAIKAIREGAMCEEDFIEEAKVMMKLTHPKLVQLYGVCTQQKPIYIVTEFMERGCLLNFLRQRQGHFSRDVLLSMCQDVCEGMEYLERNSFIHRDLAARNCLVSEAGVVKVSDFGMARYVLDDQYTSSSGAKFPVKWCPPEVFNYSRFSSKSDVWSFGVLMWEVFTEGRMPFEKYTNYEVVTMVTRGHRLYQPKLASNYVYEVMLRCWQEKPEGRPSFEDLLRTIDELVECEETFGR
# [22] = target: Inhibitor of nuclear factor kappa-B kinase subunit beta (Homo sapiens) (UniProt O14920); assay: Inhibition of human IKKbeta assessed as residual activity at 1 uM using RBER-CHKtide as substrate in presence of 33P-ATP by ProQinase assay relative to control
# Chain of MAP kinase-interacting serine/threonine-protein kinase 1 (Homo sapiens) (Q9BUB5 whole entry, looked up): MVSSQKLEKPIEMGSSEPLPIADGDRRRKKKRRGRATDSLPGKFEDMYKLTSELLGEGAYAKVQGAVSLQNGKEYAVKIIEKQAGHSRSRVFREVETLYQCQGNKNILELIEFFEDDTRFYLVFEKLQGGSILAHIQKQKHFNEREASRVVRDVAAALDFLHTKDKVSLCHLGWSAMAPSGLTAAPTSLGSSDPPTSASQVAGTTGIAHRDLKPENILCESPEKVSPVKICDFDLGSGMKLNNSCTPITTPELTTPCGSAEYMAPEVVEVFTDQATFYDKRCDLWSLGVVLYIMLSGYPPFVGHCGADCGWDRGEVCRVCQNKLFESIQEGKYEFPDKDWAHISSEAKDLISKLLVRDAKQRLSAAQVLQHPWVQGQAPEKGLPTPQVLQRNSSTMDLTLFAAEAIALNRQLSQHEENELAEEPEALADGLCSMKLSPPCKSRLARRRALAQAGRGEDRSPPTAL
# Chain of Inhibitor of nuclear factor kappa-B kinase subunit epsilon (Homo sapiens) (Q14164 whole entry): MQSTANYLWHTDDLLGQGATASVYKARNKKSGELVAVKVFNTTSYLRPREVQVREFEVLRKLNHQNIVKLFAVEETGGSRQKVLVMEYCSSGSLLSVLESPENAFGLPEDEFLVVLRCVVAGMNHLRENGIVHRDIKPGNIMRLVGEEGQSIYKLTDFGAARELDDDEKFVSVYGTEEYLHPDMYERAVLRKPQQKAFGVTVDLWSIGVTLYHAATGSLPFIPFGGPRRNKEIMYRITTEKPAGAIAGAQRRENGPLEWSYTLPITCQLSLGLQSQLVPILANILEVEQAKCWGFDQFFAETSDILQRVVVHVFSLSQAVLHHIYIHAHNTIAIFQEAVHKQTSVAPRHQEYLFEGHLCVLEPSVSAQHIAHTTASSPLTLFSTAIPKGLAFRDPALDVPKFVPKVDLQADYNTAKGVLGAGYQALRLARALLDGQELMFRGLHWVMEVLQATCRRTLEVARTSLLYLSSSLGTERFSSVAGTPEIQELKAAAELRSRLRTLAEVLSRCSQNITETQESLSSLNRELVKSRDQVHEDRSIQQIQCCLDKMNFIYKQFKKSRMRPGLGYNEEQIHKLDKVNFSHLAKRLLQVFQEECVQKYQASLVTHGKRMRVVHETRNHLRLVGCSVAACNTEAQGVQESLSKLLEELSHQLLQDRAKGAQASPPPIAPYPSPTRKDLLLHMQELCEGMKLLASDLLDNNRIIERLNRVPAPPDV
# Chain of Serine/threonine-protein kinase ULK3 (Homo sapiens) (Q6PHR2 whole entry): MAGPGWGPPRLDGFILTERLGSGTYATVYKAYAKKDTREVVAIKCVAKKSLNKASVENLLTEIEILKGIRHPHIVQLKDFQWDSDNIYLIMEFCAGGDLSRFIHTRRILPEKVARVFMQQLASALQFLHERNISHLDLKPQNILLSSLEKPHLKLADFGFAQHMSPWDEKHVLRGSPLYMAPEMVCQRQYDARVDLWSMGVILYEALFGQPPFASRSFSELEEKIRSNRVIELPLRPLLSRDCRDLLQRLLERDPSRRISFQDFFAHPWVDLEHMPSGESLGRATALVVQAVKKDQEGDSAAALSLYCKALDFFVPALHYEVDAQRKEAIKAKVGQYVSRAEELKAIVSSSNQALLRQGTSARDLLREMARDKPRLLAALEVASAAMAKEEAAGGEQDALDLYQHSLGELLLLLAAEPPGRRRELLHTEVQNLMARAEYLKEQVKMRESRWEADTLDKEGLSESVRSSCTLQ
# Chain of Dual specificity protein kinase CLK2 (Homo sapiens) (P49760 whole entry, looked up): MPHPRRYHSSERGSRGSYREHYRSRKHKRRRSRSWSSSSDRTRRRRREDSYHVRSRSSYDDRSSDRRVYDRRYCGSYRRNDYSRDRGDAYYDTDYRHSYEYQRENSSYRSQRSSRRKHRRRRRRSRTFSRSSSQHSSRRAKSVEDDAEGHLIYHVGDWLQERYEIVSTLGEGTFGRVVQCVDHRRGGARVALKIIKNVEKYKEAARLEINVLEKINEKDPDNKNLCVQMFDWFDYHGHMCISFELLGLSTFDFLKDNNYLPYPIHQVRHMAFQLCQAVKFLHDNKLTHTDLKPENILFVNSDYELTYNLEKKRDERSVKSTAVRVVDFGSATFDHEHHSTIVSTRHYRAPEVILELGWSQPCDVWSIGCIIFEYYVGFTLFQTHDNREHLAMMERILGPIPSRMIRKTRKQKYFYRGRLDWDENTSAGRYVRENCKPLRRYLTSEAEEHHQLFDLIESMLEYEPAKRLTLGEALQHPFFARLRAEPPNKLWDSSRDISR
# Chain of Serine/threonine-protein kinase ULK1 (Homo sapiens) (O75385 whole entry): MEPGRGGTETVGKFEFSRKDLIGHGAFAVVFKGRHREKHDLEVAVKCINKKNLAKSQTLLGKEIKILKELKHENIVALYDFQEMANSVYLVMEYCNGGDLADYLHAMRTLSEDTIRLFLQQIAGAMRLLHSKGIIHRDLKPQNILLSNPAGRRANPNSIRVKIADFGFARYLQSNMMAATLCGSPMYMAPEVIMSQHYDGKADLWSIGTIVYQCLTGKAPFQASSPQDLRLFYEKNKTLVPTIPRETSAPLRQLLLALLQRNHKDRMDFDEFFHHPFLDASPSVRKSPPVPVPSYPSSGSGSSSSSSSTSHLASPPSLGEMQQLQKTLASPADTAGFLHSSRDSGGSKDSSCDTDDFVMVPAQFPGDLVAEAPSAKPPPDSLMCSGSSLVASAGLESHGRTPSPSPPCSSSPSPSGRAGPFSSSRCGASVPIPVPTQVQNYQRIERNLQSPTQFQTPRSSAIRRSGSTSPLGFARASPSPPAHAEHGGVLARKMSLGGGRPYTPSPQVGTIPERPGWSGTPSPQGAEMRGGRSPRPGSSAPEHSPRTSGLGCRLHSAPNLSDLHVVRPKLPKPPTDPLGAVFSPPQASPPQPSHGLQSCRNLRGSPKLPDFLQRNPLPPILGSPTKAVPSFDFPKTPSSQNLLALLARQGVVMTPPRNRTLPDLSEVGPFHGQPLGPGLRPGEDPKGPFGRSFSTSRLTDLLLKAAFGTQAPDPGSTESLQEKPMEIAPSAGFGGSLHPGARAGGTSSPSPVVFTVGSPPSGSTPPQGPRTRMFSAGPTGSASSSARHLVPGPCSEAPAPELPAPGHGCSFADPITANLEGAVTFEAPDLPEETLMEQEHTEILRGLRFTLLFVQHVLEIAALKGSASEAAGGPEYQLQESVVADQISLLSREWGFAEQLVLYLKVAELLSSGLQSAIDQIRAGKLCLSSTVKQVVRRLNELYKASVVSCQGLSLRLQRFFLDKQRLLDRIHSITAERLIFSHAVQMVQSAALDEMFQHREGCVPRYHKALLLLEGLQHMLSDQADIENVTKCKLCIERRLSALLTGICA
# Chain of RAC-gamma serine/threonine-protein kinase (Homo sapiens) (Q9Y243 whole entry): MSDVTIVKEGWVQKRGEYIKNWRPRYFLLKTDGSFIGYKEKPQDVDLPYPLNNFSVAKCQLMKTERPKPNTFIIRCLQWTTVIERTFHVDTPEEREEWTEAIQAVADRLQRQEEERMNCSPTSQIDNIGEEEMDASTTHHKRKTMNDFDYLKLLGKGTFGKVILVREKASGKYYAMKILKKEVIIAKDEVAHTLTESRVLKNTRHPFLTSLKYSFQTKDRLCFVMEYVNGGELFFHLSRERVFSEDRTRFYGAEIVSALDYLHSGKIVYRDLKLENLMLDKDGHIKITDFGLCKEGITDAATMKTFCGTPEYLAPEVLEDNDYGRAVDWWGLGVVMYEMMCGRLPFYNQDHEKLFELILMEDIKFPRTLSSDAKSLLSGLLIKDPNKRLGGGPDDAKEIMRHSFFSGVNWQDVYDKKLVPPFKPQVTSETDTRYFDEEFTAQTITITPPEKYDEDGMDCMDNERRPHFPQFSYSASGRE
# Chain of Aurora kinase B (Homo sapiens) (Q96GD4 whole entry): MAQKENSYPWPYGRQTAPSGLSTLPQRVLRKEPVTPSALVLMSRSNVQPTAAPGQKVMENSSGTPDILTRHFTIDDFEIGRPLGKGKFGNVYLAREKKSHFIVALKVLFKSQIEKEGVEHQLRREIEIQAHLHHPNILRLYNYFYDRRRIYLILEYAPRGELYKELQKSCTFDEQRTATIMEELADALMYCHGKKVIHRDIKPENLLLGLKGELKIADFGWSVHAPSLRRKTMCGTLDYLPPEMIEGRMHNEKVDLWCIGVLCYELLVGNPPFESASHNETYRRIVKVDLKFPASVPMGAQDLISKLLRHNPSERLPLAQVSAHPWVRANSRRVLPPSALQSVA
# Chain of Cyclin-dependent kinase 5/CDK5 activator 1 (Homo sapiens) (Q00535 whole entry): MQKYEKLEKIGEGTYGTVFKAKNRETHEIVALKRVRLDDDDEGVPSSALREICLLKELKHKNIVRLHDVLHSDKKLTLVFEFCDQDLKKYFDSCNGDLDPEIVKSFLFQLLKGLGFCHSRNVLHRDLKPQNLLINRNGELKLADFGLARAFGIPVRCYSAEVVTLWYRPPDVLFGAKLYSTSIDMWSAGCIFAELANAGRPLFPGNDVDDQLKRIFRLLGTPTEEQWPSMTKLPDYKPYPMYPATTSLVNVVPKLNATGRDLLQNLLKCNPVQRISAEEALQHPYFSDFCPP
# Chain of Cyclin-dependent kinase 5/CDK5 activator 1 (Homo sapiens) (Q15078 99-307 partner limits assumed): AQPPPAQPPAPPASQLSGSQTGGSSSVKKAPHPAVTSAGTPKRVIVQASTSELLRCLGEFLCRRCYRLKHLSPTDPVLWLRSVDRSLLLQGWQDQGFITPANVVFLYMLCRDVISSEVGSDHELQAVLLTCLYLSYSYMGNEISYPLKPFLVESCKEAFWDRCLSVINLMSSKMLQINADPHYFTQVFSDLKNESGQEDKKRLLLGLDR
# Chain of Casein kinase I isoform gamma-2 (Homo sapiens) (P78368 whole entry, looked up, canonical isoform): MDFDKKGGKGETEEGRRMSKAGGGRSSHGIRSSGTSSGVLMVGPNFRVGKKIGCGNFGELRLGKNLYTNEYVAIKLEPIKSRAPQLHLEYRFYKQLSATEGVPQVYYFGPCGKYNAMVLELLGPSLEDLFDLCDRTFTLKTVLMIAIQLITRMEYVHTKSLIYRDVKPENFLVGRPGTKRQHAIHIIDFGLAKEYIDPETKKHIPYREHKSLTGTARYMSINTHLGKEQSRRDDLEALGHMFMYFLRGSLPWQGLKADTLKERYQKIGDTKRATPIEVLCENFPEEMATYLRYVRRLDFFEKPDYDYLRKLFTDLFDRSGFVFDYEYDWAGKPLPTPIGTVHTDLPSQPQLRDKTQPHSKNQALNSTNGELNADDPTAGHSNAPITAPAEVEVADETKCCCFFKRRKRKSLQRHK
structure (smiles),measurement,setting,value
O=C1c2ccc(Nc3ccc(F)cc3F)cc2CCc2ccc(OC[C@H](O)CO)cc21 [Skepinone-L],Activity,[1],99%
same,Activity,[2],100%
same,Activity,[3],98%
same,Activity,[4],101%
same,Activity,[5],69%
same,Activity,[6],99%
same,Activity,[7],100%
same,Activity,[8],90%
same,Activity,[9],92%
same,Activity,[10],101%
same,Activity,[11],100%
same,Activity,[12],103%
same,Activity,[13],94%
same,IC50,[14],200 nM
same,Activity,[15],96%
same,Activity,[16],100%
same,Activity,[17],53%
same,Activity,[18],98%
same,Activity,[19],100%
same,Activity,[20],97%
same,Activity,[21],115%
same,Activity,[22],81%
